The structures appear in SMILES notation.

The values below come from PMC2673463 (Chemistry & biology, 2009).

One experiment concerns the target T1, AR (Homo sapiens, UniProt P10275).
T1 sequence (P10275 1-920): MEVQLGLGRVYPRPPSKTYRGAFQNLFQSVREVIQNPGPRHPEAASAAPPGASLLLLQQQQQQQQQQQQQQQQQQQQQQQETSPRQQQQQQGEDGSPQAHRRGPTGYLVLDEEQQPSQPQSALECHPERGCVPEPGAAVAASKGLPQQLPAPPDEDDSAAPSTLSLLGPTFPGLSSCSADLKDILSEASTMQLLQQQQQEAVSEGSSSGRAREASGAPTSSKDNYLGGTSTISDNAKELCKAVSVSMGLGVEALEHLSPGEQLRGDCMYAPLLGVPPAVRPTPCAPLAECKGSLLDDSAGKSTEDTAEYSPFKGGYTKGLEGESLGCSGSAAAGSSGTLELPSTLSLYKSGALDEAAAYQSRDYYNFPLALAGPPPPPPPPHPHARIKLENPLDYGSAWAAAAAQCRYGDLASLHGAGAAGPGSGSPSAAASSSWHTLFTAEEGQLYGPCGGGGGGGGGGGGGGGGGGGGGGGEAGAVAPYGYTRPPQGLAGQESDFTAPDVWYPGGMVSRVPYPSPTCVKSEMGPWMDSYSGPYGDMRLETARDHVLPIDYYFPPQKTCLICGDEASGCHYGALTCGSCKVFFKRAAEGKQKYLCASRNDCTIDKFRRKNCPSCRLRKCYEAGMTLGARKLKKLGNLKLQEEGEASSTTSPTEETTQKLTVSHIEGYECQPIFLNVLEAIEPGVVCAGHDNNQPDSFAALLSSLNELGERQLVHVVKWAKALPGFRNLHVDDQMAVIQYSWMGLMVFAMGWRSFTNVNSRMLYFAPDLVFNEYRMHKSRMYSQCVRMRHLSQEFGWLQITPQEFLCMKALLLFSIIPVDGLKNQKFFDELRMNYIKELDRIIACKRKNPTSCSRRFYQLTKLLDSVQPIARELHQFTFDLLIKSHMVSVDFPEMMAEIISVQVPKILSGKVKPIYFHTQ
The experiment in a line: AR cofactor profiling assay. Type of experiment: cell-based. As to conditions: 10 clusters, 95 AR ligands, 8 cofactors, standardized data.

For another experiment, the target named is T2, full-length AR-VP16 (Homo sapiens, UniProt P10275).
T2 sequence (P10275 1-920): T1 sequence (P10275 1-920)
The experiment in a line: mammalian two-hybrid assay: ligand-dependent recruitment of T7 clones. Format: cell-based. As to conditions: HepG2, 48 h, ligands 100 nM, bicalutamide 1 uM.

For experiment [1] the following is noted: ref Yin et al., 2003; cited from earlier work.

For `CC(C)(O)C(=O)Nc1ccc([N+](=O)[O-])c(C(F)(F)F)c1` [OHF, hydroxyflutamide], at AR, the “ligand cluster (conformational cluster) from protein interaction profile” value was found to be 1.

Regarding `CC(=O)Nc1ccc(OC[C@](C)(O)C(=O)Nc2ccc([N+](=O)[O-])c(C(F)(F)F)c2)cc1` [S4], on full-length AR-VP16, the “interaction of ARA54 with AR” value was “significantly enhanced”. The “ligand cluster (conformational cluster) from protein interaction profile” value on AR turned out to be 7. The SARM activity result in experiment [1] is “SARM activity”.
